Experiments:
PR1 = experiment: Quantitative real-time PCR of PR1 gene expression after SA or BTH treatment; assay type: in vivo, Arabidopsis thaliana; details: Col wild type
Procedure: (§1) Arabidopsis (Arabidopsis thaliana accession Columbia), canola (Brassica napus var. Westar), and soybean (Glycine max var. Harasoy) plants were grown in Sunshine Mix at 22° C., 60% relative humidity (RH), and ˜140 μE m^−2 s^−1 with a 9h-photoperiod. 7-10 day-old Arabidopsis plants were infected with Hyaloperonospora arabidopsidis (Hpa). Spore counts of 1×10^5 conidiospores ml^−1, 8×10^5 cells ml^−1, and 2×10^5 cells ml^−1 were used for Noco2, Emco5, and Emwa1 isolates, respectively. Seedlings were then infected via drop inoculation and left at 16° C., >90% RH for 7-10 days before disease assessment. 4-week-old plants were infiltrated with 1×10^5 CFU ml^−1 of the bacterial pathogen, Pseudomonas syringae tomato DC3000 (AvrRps4) and bacterial growth was assessed at 0 and 3 days post infiltration.
(§2) RNA extraction was carried out using the TRIzol reagent (Life Technologies, Carlsbad, Calif.), according to the manufacturer's instructions. Reverse transcriptase (RT)-PCR was performed using cDNA generated by SuperScript II Reverse Transcriptase (Life Technologies, Carlsbad, Calif.) according to the manufacturer's instructions. Expression of PR1 was visualized by gel electrophoresis of samples after RT-PCR with PR1 primers (AtPR1-F, AtPR1-R).
(§3) Quantitative real-time PCR was performed using Fast SYBR Green Master Mix (Life Technologies, Carlsbad, Calif.). […]

AtTTM2 = experiment: Quantitative real-time PCR of AtTTM2 expression after SA, BTH or flg22 treatment; assay type: in vivo, Arabidopsis thaliana
Procedure: as §1, §2, §3

GmTTM2a/b = experiment: qPCR of TTM2 orthologues in soybean after BTH treatment; assay type: in vivo, Glycine max; details: soybean var. Harasoy, 200 μM BTH, 48hrs
Procedure: as §1
(§4) Quantitative real-time PCR was performed using Fast SYBR Green Master Mix (Life Technologies, Carlsbad, Calif.). The expression of Arabidopsis genes were normalized to the expression of AtEF1A (elongation factor1-alpha) while the expression of soybean and canola genes were normalized to GmEF1B (elongation factor1-beta) and BnUBC21 (ubiquitin conjugating enzyme21), respectively.
(§5) 7- to 10-day old Arabidopsis seedlings were treated with 100 μM SA or 200 μM BTH. […]

OsTTM2 = experiment: Expression of TTM2 in rice after BTH treatment; assay type: in vivo, Oryza sativa; details: 4 week old rice, 200 uM BTH, 48 hours
Procedure: (§6) Tomato, Cucumber, Pepper and Petunia plants for BTH treatment were grown in Sunshine Mix at 22° C., 60% relative humidity, and approximately 140 uE m^−2 s^−1 with a 9-h photoperiod. Rice and Brachypodium distachyon plants for BTH treatment were grown in Rice Mix. tomato plants for Pseudomonas infection were grown in Sunshine Mix, at 22° C. 60% relative humidity, and natural light condition.
(§7) FIG. 26 illustrates expression of OsTTM2 in 4 week old rice (Oryza sativa) plant and BdTTM2 in the model monocotyledonous plant Brachypodium distachyon 48 hours after BTH (200 uM) treatment. Solution was sprayed with the addition of 0.025% (v/v) Silwet. Expression of both genes was suppressed similar to Arabidopsis TTM2.

CaTTM2 = experiment: Expression of TTM2 in pepper after BTH treatment; assay type: in vivo, Capsicum annuum; details: 4-5 week old pepper, 200 uM BTH, 48 hours
Procedure: as §6
FIG. 24b illustrates expression of CaTTM2 in approximately 4-5 week old pepper (Capsicum annuum) 48 hours after BTH (200 uM) treatment. Solution was sprayed with the addition of 0.025% (v/v) Silwet. Expression of the gene was suppressed similar to Arabidopsis TTM2.

SITTM2A and B = experiment: Expression of TTM2 in tomato after BTH treatment; assay type: in vivo, Solanum lycopersicum; details: 4-5 week old tomato, 200 μM BTH, 48 hours
Procedure: as §6
FIG. 23 illustrates expression of SITTM2A and B in approximately 4-5 week old tomato (Solanum lycopersicum) 48 hours after with and without BTH (200 μM) treatment. Solution was sprayed with the addition of 0.025% (v/v) Silwet. Expression of both genes was suppressed similar to Arabidopsis TTM2.

PhTTM2A and B = experiment: Expression of TTM2 in Petunia after BTH treatment; assay type: in vivo, Petunia hybrida; details: 4-5 week old Petunia, 200 uM BTH, 48 hours
Procedure: as §6
FIG. 25 illustrates expression of PhTTM2A and B in approximately 4-5 week old Petunia (Petunia hybrida) 48 hours after BTH (200 uM) treatment. Solution was sprayed with the addition of 0.025% (v/v) Silwet. Expression of both genes was suppressed similar to Arabidopsis TTM2.

BnTTM2a, BnTTM2b = experiment: qPCR of TTM2 orthologues in canola after BTH treatment; assay type: in vivo, Brassica napus; details: canola var. Westar, 200 μM BTH, 48hrs
Procedure: as §1, §4, §5

BdTTM2 = experiment: Expression of TTM2 in Brachypodium distachyon after BTH treatment; assay type: in vivo; details: 200 uM BTH, 48 hours
Procedure: as §6, §7

CsTTM2 = experiment: Expression of TTM2 in cucumber after BTH treatment; assay type: in vivo, Cucumis sativus; details: 4-5 week old cucumber, 200 uM BTH, 48 hours
Procedure: as §6
FIG. 24a illustrates expression of CsTTM2 in approximately 4-5 week old cucumber (Cucumis sativus) 48 hours after BTH (200 uM) treatment. Solution was sprayed with the addition of 0.025% (v/v) Silwet. Expression of the gene was suppressed similar to Arabidopsis TTM2.

Structure (SMILES) | PR1 gene expression after SA treatment (PR1; 100 μM SA, 24h) | AtTTM2 down-regulation after SA treatment (AtTTM2; Col wild type plants sprayed with 100 μM SA, 24h) | Expression of GmTTM2a/b in response to BTH (GmTTM2a/b) | Expression of OsTTM2 after BTH treatment (OsTTM2) | Expression of CaTTM2 after BTH treatment (CaTTM2) | Expression of SITTM2A and B after BTH treatment (SITTM2A and B) | PR1 gene expression after BTH treatment (PR1; 200 μM BTH, 48h) | Expression of PhTTM2A and B after BTH treatment (PhTTM2A and B) | Expression of BnTTM2a, BnTTM2b in response to BTH (BnTTM2a, BnTTM2b) | Expression of BdTTM2 after BTH treatment (BdTTM2) | Expression of CsTTM2 after BTH treatment (CsTTM2) | AtTTM2 down-regulation after BTH treatment (AtTTM2; Col wild type, 200 μM BTH, 48h)
O=C(O)c1ccccc1O [SA, salicylic acid] | increase in PR1 gene expression | more than 2 fold | – | – | – | – | – | – | – | – | – | –
c1ccc2snnc2c1 [BTH, benzothiadiazole] | – | – | similarly down-regulated | suppressed | suppressed | suppressed | increase in PR1 gene expression | suppressed | similarly down-regulated | suppressed | suppressed | down-regulation was also observed

From patent publication US20170016019A1, “Plants Having Enhanced Pathogen Resistance and Methods of Modulating Pathogen Resistance in Plants” (The Governing Council of the University of Toronto, priority 2014, published 2017)
